The text below walks through data of patent US20240174617A1, “FPR2 (FORMYL PEPTIDE RECEPTOR 2)RECEPTOR AGONISTS AND THEIR USE IN THE TREATMENT OF THE AUTISM SPECTRUM DISORDER” (UNIVERSITA' DEGLI STUDI DI BARI ALDO MORO, priority 2021, published 2024).

Common to all, as to type: cell-based
In data set [1] the test system is mouse microglial N9 cells. The experiment in a line: cell viability (LDH assay) in microglial N9 cells. The conditions noted are these: for LDH release activity (cytotoxic effect): basal conditions, 0.5-5 μM, 24 hours (FIG. 4); for cell mortality (LDH release), neuroprotective effect: pre-incubation 0.5-5 μM, then LPS (100 ng/mL) for 24 hours (FIG. 4). As for the experimental part: Study of the effect of compounds (S)-4, (S)-5, (S)-7, (R)-8, (S)-8, (S)-9, (S)-12, (S)-15 and (S)-16 on the cell viability (LDH assay) in cultures of mouse microglial N9 cells.
The neuroprotective activity of the compounds (S)-4, (S)-5, (S)-7, (R)-8, (S)-8, (S)-9, (S)-12, (S)-15 and (S)-16 was assessed by determining its effect on the cell viability both under basal conditions and following stimulation with bacterial lipopolysaccharide (LPS) toxin. The mouse microglial N9 cells were seeded in a 96-well plate (2x10^4 cells/well) by using RPMI supplemented with 1% fetal bovine serum (FBS) as culture medium. The cells were incubated for 24 hours with different concentrations of the selected compounds (0.5-5 μM) to assess the potential cytotoxic effect of the compounds. The control cells were treated with the carrier only. To quantify the cell mortality, the level of lactate dehydrogenase (LDH) release after 24 hours of treatment was determined. The supernatant of the cell cultures was taken and incubated for 20 minutes at room temperature with the appropriate mixture of reagents according to the instructions of the supplier of the assessment kit (Cytotoxicity Detection Kit, Roche, Germany). The LDH release activity was determined as conversion of lactate to pyruvate by a colorimetric test (X=490 nm, Infinite 200 PRO Detector, TECAN, Switzerland). The LDH release activity is proportional to the 25 number of damaged cells. […] Subsequently, the cells were pre-incubated with different concentrations of the selected compounds (0.5-5 μM) and then stimulated with LPS (100 ng/mL) for 24 hours. The control cells were treated with the carrier only. The cell viability at the end 30 of 24 hours was assessed as previously described.

Data set [2] relates to TNF-α release in mouse microglial N9 cells. Nature of the data set: TNF-α release (ELISA) in microglial N9 cells. As for the experimental part:
(§1) The anti-inflammatory effect of the compounds (S)-4, (S)-7, (S)-8, (S)-9 and (S)-16 was determined by assessing its ability to affect the release of the pro-inflammatory cytokines IL-1β and TNF-α both in the cells under basal conditions and after stimulation with LPS. The mouse microglial N9 cells were seeded in a 96-well plate (2×10^4 cells/well) by using Iscove supplemented with 10% FBS as culture medium. The cells were then treated with different concentrations of the selected compounds (0.5-5 il.M) for 24 hours. The supernatant was then collected and the IL-1β and TNF-a levels were measured by using specific ELISA kits following the instructions of the supplier (R&D Systems, USA). […] Subsequently, the cells were pre-incubated with different concentrations of the selected compounds (0.5-5 μM) and then stimulated with LPS (100 ng/mL) for 24 hours. The control cells were treated with the carrier only. The IL-1β and TNF-α levels were determined as previously described. […] The specificity of the observed effect was assessed by co-incubating the cells with the FPR2 antagonist WRW4.

Data set [3] relates to IL-1β release in mouse microglial N9 cells. The experiment in a line: IL-1β release (ELISA) in microglial N9 cells. The protocol:
as §1

Setting [4] is: basal conditions, 0.5-5 μM, 24 hours (FIG. 6).
[5] abbreviates: pre-incubation 0.5-5 μM, then LPS (100 ng/mL) for 24 hours (FIG. 6).
Setting [6] is: basal conditions, 0.5-5 μM, 24 hours (FIG. 5).
Where [7] appears, read: pre-incubation 0.5-5 μM, then LPS (100 ng/mL) for 24 hours (FIG. 5).

`N#Cc1ccc(C[C@H](NC(=O)Nc2ccc(F)cc2)C(=O)NC2CCCCNC2=O)cc1` (stereo partly drawn) [(S)-4, (2S)-3-(4-Cyanophenyl)-2-(3-(4-fluorophenyl)ureido)-N-(2-oxoazepan-3-yl)propanamide]: the “LDH release activity (cytotoxic effect)” value in data set [1] is “do not increase the LDH release activity”. In data set [1], the “cell mortality (LDH release), neuroprotective effect” value (“cell mortality (LDH release)” for short) is “reduce the cell mortality effect caused by the stimulation with LPS”. Also, the TNF-α release entry in data set [2] (setting [4]) is listed as “do not cause increased release of the two cytokines”; in data set [2] (setting [5]), “reduce the release of inflammatory cytokines”. In addition, the IL-1β release result in data set [3] (setting [6]) is “do not cause increased release of the two cytokines”; in data set [3] (setting [7]), “reduce the release of inflammatory cytokines”.

Consider `N#Cc1ccc(C[C@H](NC(=O)Nc2ccc(F)cc2)C(=O)N2CCc3ccccc32)cc1` [(S)-7, (S)-1-(3-(4-Cyanophenyl)-1-(indolin-1-yl)-1-oxopropan-2-yl)-3-(4-fluorophenyl)urea], for which the “LDH release activity (cytotoxic effect)” value in data set [1] is “do not increase the LDH release activity”. The “cell mortality (LDH release)” value in data set [1] was “reduce the cell mortality effect caused by the stimulation with LPS”. Besides, the TNF-α release entry in data set [2] (setting [4]) is “do not cause increased release of the two cytokines”; in data set [2] (setting [5]) it was “reduce the release of inflammatory cytokines”. In addition, the IL-1β release result in data set [3] (setting [6]) is recorded as “do not cause increased release of the two cytokines”; in data set [3] (setting [7]), “reduce the release of inflammatory cytokines”.

For the molecule `N#Cc1ccc(C[C@H](NC(=O)Nc2ccc(F)cc2)C(=O)N2CCc3ccc(F)cc32)cc1` [(S)-8, (S)-1-(3-(4-Cyanophenyl)-1-(6-fluoroindolin-1-yl)-1-oxopropan-2-yl)-3-(4-fluorophenyl)urea], the “LDH release activity (cytotoxic effect)” value in data set [1] was “do not increase the LDH release activity”. In addition, in data set [1], the “cell mortality (LDH release)” value is given as “reduce the cell mortality effect caused by the stimulation with LPS”. The TNF-α release entry in data set [2] (setting [4]) was “do not cause increased release of the two cytokines”; in data set [2] (setting [5]), “reduce the release of inflammatory cytokines”. In addition, the IL-1β release entry in data set [3] (setting [6]) is given as “do not cause increased release of the two cytokines”; in data set [3] (setting [7]), “reduce the release of inflammatory cytokines”.

As to `N#Cc1ccc(C[C@H](NC(=O)Nc2ccc(F)cc2)C(=O)N2CCc3cc(F)ccc32)cc1` [(S)-9, (S)-1-(3-(4-Cyanophenyl)-1-(5-fluoroindolin-1-yl)-1-oxopropan-2-yl)-3-(4-fluorophenyl)urea], the “LDH release activity (cytotoxic effect)” value in data set [1] is recorded as “do not increase the LDH release activity”. In addition, the “cell mortality (LDH release)” value in data set [1] is “reduce the cell mortality effect caused by the stimulation with LPS”. For the same molecule, the TNF-α release result in data set [2] (setting [4]) is on record as “do not cause increased release of the two cytokines”; in data set [2] (setting [5]), “reduce the release of inflammatory cytokines”. The results for the IL-1β release entry in data set [3] (setting [6]) and in data set [3] (setting [7]) were “do not cause increased release of the two cytokines” and “reduce the release of inflammatory cytokines”, respectively.
